As usually defined, the Tmax is the time at which the peak concentration occurs. What is called IC50 is the concentration that gives 50% inhibition.

The results in this text go back to US11730712B2, “Functionalized long-chain hydrocarbon mono- and di-carboxylic acids and derivatives thereof, and their use for the prevention or treatment of disease” (ESPERVITA THERAPEUTICS, INC., priority 2021, dated 2023).

Values joined by “and” are separate entries in the source; they are usually repeats but may differ in a detail not shown here. Equal values may be shown once.

Data set [1] relates to Hep3B cells. The experiment in a line: Drug interaction (combination) in Hep3B cell proliferation. Type of data set: cell-based. On the procedure:
FIGS. 41A-41B show drug interaction effect of Compound I-32 (FIG. 41A) and Compound I-1 (FIG. 41B) in combination with regorafenib in Hep3B cell proliferation. In FIG. 41A, “1+0.015 (μM)” means 1 μM Compound I-32+0.015 μM regorafenib, etc. In FIG. 41B, “1+0.015 (μM)” means 1 μM Compound I-1+0.015 μM regorafenib, etc.
In FIG. 44A, “1+0.03 (μM)” means 1 μM Compound I-1+0.03 μM sorafenib, etc. […] In FIG. 44B, “1+0.005 (μM)” means 1 μM Compound I-1+0.005 μM lenvatinib, etc. […] In FIG. 44C, “1+0.03 (μM)” means 1 μM Compound I-32+0.03 μM sorafenib, etc. […] In FIG. 44D, “1+0.005 (μM)” means 1 μM Compound I-32+0.005 μM lenvatinib, etc.

Data set [2] is described as follows: Toxicokinetics in female rat plasma (4-day oral gavage study, Day 1). Type of data set: in vivo. The note with it: for dose proportionality of increases in mean Cmax and AUC0-24: 100 to 300 mg/kg/day. The protocol:
Bioanalytical and Toxicokinetic Analyses. Blood samples (approximately 0.3 mL) were collected from nonfasted toxicokinetic animals via a jugular vein on Day 1 of the dosing phase, as indicated in the following table. Samples were collected predose and approximately 1, 2, 4, and 24 hours postdose.
Blood was collected into tubes containing potassium (K2) EDTA as the anticoagulant. Samples were maintained on chilled cryoracks and were centrifuged within 1 hour of collection. Plasma was harvested into two approximately equal aliquots and stored on dry ice until placed in a freezer, set to maintain −60 to −80° C., until analyzed. Plasma samples were analyzed for Compound I-1 and Compound I-32 content using a generic Tier 1 qualified liquid chromatography-tandem mass spectrometry (LC-MS/MS) method.
In-Life Phase. Animals were dosed once daily for up to 4 days via oral gavage at a volume of 10 mL/kg. Animals in Group 2 and 3 were administered Compound I-1. Animals in Group 4 and 5 were administered Compound I-32. The control article for Group 1 was 1.5% (w/v) carboxymethyl cellulose+0.2% (v/v) Tween 20 in deionized (DI) water. The vehicle used to prepare Compound I-1 and Compound I-32 formulations was 3% (w/v) carboxymethyl cellulose+0.4% (v/v) Tween 20 in DI water.

In data set [3] the test system is Hep3B cells. Briefly: Hep3B cell proliferation. Type of data set: cell-based. The note with it: with or without regorafenib (1.5 μM). An excerpt:
FIG. 36 show anti-proliferative effect of illustrative compounds of the invention in Hep3B cells.
Each bar represents the mean±the SEM, n=5. *p<0.03, **p<0.002, ***p<0.0002, ****p<0.0001, One-way ANOVA followed by Tukey's multiple comparison.

The next data set relates to Hepa1-6 cells. Briefly: Hepa1-6 cell proliferation. It counts as cell-based. The settings on record: with or without regorafenib (5 μM). From the text: FIG. 37 show anti-proliferative effect of illustrative compounds of the invention in Hepa1-6 cells.
For the next data set, the target named is T1, Human ACC2 (Homo sapiens, UniProt O00763).
T1 construct: FLAG (C); His (C); purchased BPS Biosciences 50201; host or cells: Baculovirus infected Sf9 cells
The experiment in a line: ACC2 enzymatic assay (ADP-Glo). Type of data set: biochemical. The settings on record: recombinant human ACC2 1 nM, 10 μM ATP, 10 μM acetyl CoA; Run 1-3; read-out: Compound IC50 (M) ACC2. On the procedure:
Human ACC1 (Cat#50202 Lot #120830) and ACC2 (Cat #50201 Lot #160217) were obtained from BPS Biosciences, San Diego, Calif. 92121. Human ACC1 had C-terminal flag and His-tags with a MW of 270 KDa after purification from Baculovirus infected Sf9 cell expression system and came as a solution in 50 mM Tris-HCl, pH 8.0, 500 mM NaCl, 10% glycerol, 1 mM DTT, 100 μg/ml FLAG peptide with 70% purity. The stock concentration was 0.25 mg/ml corresponding to 0.926 μM. Human ACC2 was also purified from Baculovirus infected Sf9 expression system. […] The stock concentration was 0.1 mg/ml corresponding to 0.36 μM. The assay buffer for measuring the activity of ACC contained: 30 mM HEPES (pH 7.4), 2 mM MgCl2, 0.01% Brij35, 2 mM DTT, 1% DMSO (solvent for compound). For ACC1 and ACC2 assays, the following concentrations of substrate and cofactors were used: 12 mM NaHCO3, 10 μM acetyl CoA, 10 μM ATP, and 2 mM K-citrate. The recombinant human enzyme was used at 5 nM for ACC1 and 1 nM for ACC2. In brief, enzyme alone in the above buffer without substrate was used for background. All test materials were dissolved in 100% DMSO using acoustic technology (Echo550). The prepared solution was preincubated for 15 min followed by the addition of 5 μL/well of ADP standard. ATP was then added to start the reaction. The assay contents were spun and briefly shaken followed by incubation at room temperature for 1 h. At the end of completion of assay, 5 μL of ADP-Glo was added to each well to stop the reaction. The contents were mixed, spun and incubated at room temperature for 40 min followed by the addition of 10 μL/well of ADP detection reagent. The contents were spun, mixed and covered with plastic to measure luminescence. […] The light generated, measured in a luminometer, correlates to the amount of ADP generated in the ACC assay, which is indicative of ACC activity.
The enzyme concentrations for ACC1 and ACC2 were 5 nM and 1 nM, respectively.
Data represent nM or μM ADP produced, % Activity (relative to no inhibitor controls), and curve fits were performed by GraphPad Prism software. […]
On the technique in general: ADP-Glo turns the ADP formed in a reaction into a luminescent signal.

The mark [4] stands for this setting: female rat plasma, 100 mg/kg/day oral gavage, Day 1.

T1 sequence (O00763 whole entry): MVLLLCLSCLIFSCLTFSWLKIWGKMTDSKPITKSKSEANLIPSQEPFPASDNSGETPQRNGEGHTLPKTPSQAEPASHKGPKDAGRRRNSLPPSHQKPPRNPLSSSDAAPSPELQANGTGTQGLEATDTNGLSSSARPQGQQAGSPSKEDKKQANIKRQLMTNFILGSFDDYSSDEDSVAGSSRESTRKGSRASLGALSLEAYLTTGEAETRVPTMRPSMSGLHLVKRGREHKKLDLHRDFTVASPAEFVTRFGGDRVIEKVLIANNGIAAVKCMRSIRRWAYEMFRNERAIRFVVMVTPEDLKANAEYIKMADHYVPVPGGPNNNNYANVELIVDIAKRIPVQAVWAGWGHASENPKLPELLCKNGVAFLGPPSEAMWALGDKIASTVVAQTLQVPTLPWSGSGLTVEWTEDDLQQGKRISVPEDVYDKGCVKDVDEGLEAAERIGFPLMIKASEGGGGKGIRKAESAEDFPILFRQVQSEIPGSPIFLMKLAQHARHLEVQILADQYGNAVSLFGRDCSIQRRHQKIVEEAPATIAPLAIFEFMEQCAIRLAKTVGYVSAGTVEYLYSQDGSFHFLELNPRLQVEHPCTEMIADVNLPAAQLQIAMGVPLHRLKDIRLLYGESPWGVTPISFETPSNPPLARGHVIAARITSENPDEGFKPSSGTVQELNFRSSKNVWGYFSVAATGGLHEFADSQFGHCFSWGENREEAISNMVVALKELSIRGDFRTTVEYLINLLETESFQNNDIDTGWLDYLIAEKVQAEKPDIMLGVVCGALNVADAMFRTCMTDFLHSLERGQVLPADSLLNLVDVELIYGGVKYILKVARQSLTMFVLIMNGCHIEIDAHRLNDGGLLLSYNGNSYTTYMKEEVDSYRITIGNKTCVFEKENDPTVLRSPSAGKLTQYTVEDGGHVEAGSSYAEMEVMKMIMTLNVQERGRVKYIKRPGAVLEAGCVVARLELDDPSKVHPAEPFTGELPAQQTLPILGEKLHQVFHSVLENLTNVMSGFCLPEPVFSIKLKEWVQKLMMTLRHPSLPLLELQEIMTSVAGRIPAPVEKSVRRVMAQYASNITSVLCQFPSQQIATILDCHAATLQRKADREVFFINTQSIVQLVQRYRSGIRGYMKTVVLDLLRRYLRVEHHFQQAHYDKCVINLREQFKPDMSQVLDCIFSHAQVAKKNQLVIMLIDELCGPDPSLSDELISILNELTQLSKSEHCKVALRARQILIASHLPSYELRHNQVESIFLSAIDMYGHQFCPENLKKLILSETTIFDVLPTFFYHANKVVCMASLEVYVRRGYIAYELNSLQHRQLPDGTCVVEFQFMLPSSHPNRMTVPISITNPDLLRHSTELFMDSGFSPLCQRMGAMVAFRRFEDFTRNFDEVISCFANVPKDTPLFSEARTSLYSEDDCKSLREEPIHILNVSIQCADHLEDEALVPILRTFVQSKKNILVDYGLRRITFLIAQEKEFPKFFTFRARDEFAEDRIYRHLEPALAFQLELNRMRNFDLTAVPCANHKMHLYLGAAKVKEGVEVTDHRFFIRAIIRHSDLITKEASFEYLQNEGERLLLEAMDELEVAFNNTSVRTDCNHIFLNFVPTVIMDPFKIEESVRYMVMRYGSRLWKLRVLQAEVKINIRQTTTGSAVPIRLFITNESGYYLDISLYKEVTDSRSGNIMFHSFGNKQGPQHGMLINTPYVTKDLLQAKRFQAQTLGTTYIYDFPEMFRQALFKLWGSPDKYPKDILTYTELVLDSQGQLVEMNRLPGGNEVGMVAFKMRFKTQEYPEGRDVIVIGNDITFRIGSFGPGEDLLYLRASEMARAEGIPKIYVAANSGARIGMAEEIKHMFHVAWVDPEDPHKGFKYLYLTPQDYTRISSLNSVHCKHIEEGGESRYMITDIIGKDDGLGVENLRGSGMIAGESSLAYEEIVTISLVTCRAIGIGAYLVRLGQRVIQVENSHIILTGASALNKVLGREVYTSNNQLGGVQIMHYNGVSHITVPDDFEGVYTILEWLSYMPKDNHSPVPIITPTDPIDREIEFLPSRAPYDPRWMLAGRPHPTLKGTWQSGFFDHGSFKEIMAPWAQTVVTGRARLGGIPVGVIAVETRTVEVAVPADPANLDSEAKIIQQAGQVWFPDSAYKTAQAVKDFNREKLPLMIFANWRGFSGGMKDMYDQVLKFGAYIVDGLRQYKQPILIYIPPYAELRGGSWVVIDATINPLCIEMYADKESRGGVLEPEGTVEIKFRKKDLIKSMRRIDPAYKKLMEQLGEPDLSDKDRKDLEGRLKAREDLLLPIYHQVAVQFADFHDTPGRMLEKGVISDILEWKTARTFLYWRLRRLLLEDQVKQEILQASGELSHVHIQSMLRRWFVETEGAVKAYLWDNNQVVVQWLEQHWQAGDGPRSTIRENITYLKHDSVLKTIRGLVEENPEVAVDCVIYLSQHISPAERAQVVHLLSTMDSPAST

As for `CC(C)(CCCCc1ccc(CCCCC(C)(C)C(=O)O)cc1)C(=O)O` [Compound I-1, 6-[4-(5-carboxy-5-methylhexyl)-phenyl]-2,2-dimethylhexanoic acid], in the data set with Hep3B cells [1] (at various concentrations), the “drug interaction effect in combination with lenvatinib” value is given as “synergism” and the “drug interaction effect in combination with sorafenib” value is “synergism”. In data set [2] (setting [4]), the AUC0-24 is reported as 5,460,000 h*ng/mL and the time to peak (Tmax) is on record as 2.00 h. Besides, the Tmax in data set [2] (female rat plasma, 300 mg/kg/day oral gavage, Day 1) was 1.00 h. The “dose proportionality of increases in mean Cmax and AUC0-24” value in data set [2] (female rat) is “less than dose proportional”. Further, the effect on proliferation entry in the data set with Hep3B cells [3] is “anti-proliferation effect”. In addition, in the data set on Hepa1-6 cells, the effect on proliferation entry was “anti-proliferation effect”.
In the case of `CC(C)(CCCCc1ccc(CCCCC(C)(C)C(=O)SCCNC(=O)CCNC(=O)[C@H](O)C(C)(C)COP(=O)(O)OP(=O)(O)OC[C@H]2O[C@@H](n3cnc4c(N)ncnc43)[C@H](O)[C@@H]2OP(=O)(O)O)cc1)C(=O)O` [Compound I-1-CoA, 6-[4-(5-carboxy-5-methylhexyl)-phenyl]-2,2-dimethylhexanoic acid Coenzyme A ester], the IC50 on Human ACC2 was 9.41e-06 M and 7.72e-06 M and 9.06e-06 M.
With `CC(C)(CCCCc1cccc(CCCCC(C)(C)C(=O)O)c1)C(=O)O` [Compound I-32, 6-[3-(5-carboxy-5-methylhexyl)-phenyl]-2,2-dimethylhexanoic acid], the “drug interaction effect in combination with sorafenib” value in the data set with Hep3B cells [1] (at all tested concentrations) is given as “synergism”. For the same compound, in the data set on Hep3B cells [1] (at various concentrations), the “drug interaction effect in combination with lenvatinib” value was “synergism”. Also, the Cmax in data set [2] (Wistar Han, plasma, oral, female rat, 300 mg/kg/day, Day 1, read-out: mean maximum observed concentration (Cmax)) is 406 µg/mL. The “dose proportionality of increases in mean Cmax and AUC0-24” value in data set [2] (female rat) was “approximately dose proportional”. For the same compound, the effect on proliferation result in the data set with Hep3B cells [3] and in the data set on Hepa1-6 cells was “anti-proliferation effect” throughout.
As to `CC(C)(CCCCc1cccc(CCCCC(C)(C)C(=O)SCCNC(=O)CCNC(=O)[C@H](O)C(C)(C)COP(=O)(O)OP(=O)(O)OC[C@H]2O[C@@H](n3cnc4c(N)ncnc43)[C@H](O)[C@@H]2OP(=O)(O)O)c1)C(=O)O` [Compound I-32-CoA, 6-[3-(5-Carboxy-5-methylhexyl)-phenyl]-2,2-dimethylhexanoic acid Coenzyme A Ester], the IC50 at Human ACC2 was 5.02e-06 M and 4.22e-06 M and 3.33e-06 M.
